Patent US20260209297A1, “ANTIMICROBIAL PEPTIDES AND MODIFICATIONS THEREOF” (priority 2022, published 2026)
Values after ≈ are worked out from the molar mass of the structure shown. Positions of bridges follow the written chain, without caps; N, C: chain ends. Non-standard residues stand in square brackets, D forms with d. Residues, ends and D or L forms follow the SMILES beside them. No end group written: not given here. Dab = NCC[C@H](N)C(=O)O

Assays:
Botrytis cinerea T-4 = conditions: Table 18
B. cinerea [1] = assay: MIC antifungal assay in SFM culture media (with or without added salts); format: cell-based, Botrytis cinerea
F. graminearum = format: cell-based, Fusarium graminearum
B. cinerea [2] = assay: Semi-in planta gray mold assay on detached Nicotiana benthamiana leaves (drop inoculation); format: in vivo, Botrytis cinerea; conditions: for gray mold symptoms, drop inoculation assay: 3 and 6 μM
[3] = system: Colletotrichum gloeosporioides; assay: 96-well plate MIC assay with resazurin viability; format: cell-based; conditions: Table 19; unit not given (peptide concentrations in μM)
Cercospora sojina = assay: 96-well plate MIC assay with resazurin viability; format: cell-based; conditions: Table 19; unit not given (peptide concentrations in μM)
Alternaria alternata = assay: 96-well plate MIC assay with resazurin viability; format: cell-based; conditions: Table 19; unit not given (peptide concentrations in μM)

Row | Compound | MIC (μM) SFM (Botrytis cinerea T-4) [µM] | MIC (μM) (SFM + 2 mM CaCl2) (Botrytis cinerea T-4) [µM] | MIC (μM) (SFM + 100 mM KCl) (Botrytis cinerea T-4) [µM] | MIC (μM) (SFM + 100 mM NaCl) (Botrytis cinerea T-4) [µM] | MIC Colletotrichum gloeosporioides [3] | MIC Cercospora sojina (Cercospora sojina) | MIC Alternaria alternata (Alternaria alternata) | also measured
1 | C[C@@H](O)[C@H](NC(=O)[C@H](CS)NC(=O)[C@H](Cc1ccccc1)NC(=O)[C@H](CS)NC(=O)[C@H](CCCNC(=N)N)NC(=O)[C@H](CCCNC(=N)N)NC(=O)[C@H](CCCNC(=N)N)NC(=O)[C@H](Cc1ccccc1)NC(=O)CNC(=O)[C@H](CCCNC(=N)N)NC(=O)[C@H](CS)NC(=O)[C@H](CCCNC(=N)N)NC(=O)CN)C(=O)N[C@H](C(=O)N[C@@H](Cc1c[nH]cn1)C(=O)N[C@@H](CS)C(N)=O)[C@@H](C)O [GMA4AC, reference compound] (H-GRCRGFRRRCFCTTHC-NH2) | 3 (≈ 5.88 µg/mL) | – | – | – | – | – | – | MIC (μM) Botrytis cinerea (B. cinerea [1]; SFM, Table 9): 6 µM; MIC (μM) Fusarium graminearum (F. graminearum): 6 µM (≈ 11.8 µg/mL)
2 | CC(C)C[C@H](NC(=O)[C@H](CS)NC(=O)[C@H](C)NC(=O)CN)C(=O)N[C@@H](CCCCN)C(=O)N[C@@H](CC(N)=O)C(=O)N[C@@H](CCCNC(=N)N)C(=O)N[C@@H](Cc1c[nH]cn1)C(=O)N[C@@H](CO)C(=O)N[C@@H](CCCCN)C(=O)N[C@@H](Cc1c[nH]cn1)C(=O)N[C@@H](Cc1ccc(O)cc1)C(=O)NCC(=O)N[C@@H](CS)C(=O)N[C@@H](Cc1ccc(O)cc1)C(=O)N[C@@H](CS)C(=O)N[C@@H](Cc1ccc(O)cc1)C(=O)N[C@@H](Cc1ccc(O)cc1)C(=O)N[C@@H](CCCNC(=N)N)C(=O)N[C@@H](Cc1c[nH]cn1)C(=O)N[C@@H](CS)C(=O)N[C@@H](Cc1ccc(O)cc1)C(N)=O [GMAOe1C_WT, reference compound] (H-GACLKNRHSKHYGCYCYYRHCY-NH2; N-terminus assumed) | – | – | – | – | – | – | – | reducing gray mold disease symptoms (lesion sizes) (B. cinerea [2]; detached N. benthamiana leaves, 1.5 μM, 3 μM and 6 μM, 48 h): only effective at 6 μM
3 | CC[C@H](C)[C@H](NC(=O)[C@H](CCCNC(=N)N)NC(=O)[C@H](CS)NC(=O)[C@H](CCCNC(=N)N)NC(=O)CNC(=O)[C@@H](N)CO)C(=O)N[C@@H](CC(C)C)C(=O)N[C@@H](Cc1ccccc1)C(=O)N[C@@H](CCCNC(=N)N)C(=O)N[C@@H](CS)C(=O)N[C@@H](Cc1ccccc1)C(=O)N[C@@H](CS)C(=O)N[C@H](C(=O)N[C@@H](CCCCN)C(=O)N[C@@H](CC(N)=O)C(=O)N[C@@H](CS)C(N)=O)[C@@H](C)O [GMA1C_V1] (H-SGRCRILFRCFCTKNC-NH2; N-terminus assumed) | – | – | – | – | – | – | – | gray mold symptoms, drop inoculation assay (B. cinerea [2]): failed to reduce disease symptoms
4 | C[C@@H](O)[C@H](NC(=O)[C@H](CS)NC(=O)[C@H](Cc1ccccc1)NC(=O)[C@H](CS)NC(=O)[C@H](CCCNC(=N)N)NC(=O)[C@H](CCCNC(=N)N)NC(=O)[C@H](CCCNC(=N)N)NC(=O)[C@H](Cc1ccccc1)NC(=O)CNC(=O)[C@H](CCCNC(=N)N)NC(=O)[C@H](CS)NC(=O)[C@H](CCCNC(=N)N)NC(=O)CNC(=O)CN)C(=O)N[C@H](C(=O)N[C@@H](Cc1c[nH]cn1)C(=O)N[C@@H](CS)C(N)=O)[C@@H](C)O [GMA4C_AC, reference compound] (H-GGRCRGFRRRCFCTTHC-NH2; N-terminus assumed) | – | – | – | – | – | – | – | antifungal activity against B. cinerea in presence of cations (B. cinerea [1]; 100 mM NaCl or 100 mM KCl): retain their antifungal activity; SFM + 2 mM CaCl2 MIC (μM) (B. cinerea [1]; B. cinerea, Table 4): >6 (a few μM; SFM + 2 mM CaCl2 MIC (μM) (B. cinerea [1]; Table 10): >6 (a few μM
5 | C[C@H](NC(=O)CN)C(=O)N[C@H]1CSSC[C@@H](C(N)=O)NC(=O)[C@H](CCCCN)NC(=O)[C@H](CCCCN)NC(=O)[C@H](Cc2ccc(O)cc2)NC(=O)[C@H](Cc2ccccc2)NC(=O)[C@H](Cc2ccccc2)NC(=O)[C@H](Cc2ccccc2)NC(=O)[C@H](C)NC(=O)[C@H](Cc2ccccc2)NC(=O)CNC(=O)[C@H](Cc2ccccc2)NC(=O)CNC(=O)[C@H](CCC(N)=O)NC(=O)[C@H](CCCNC(=N)N)NC(=O)[C@H](Cc2c[nH]cn2)NC1=O [GMA5CA_V4] (H-GACHRQGFGFAFFFYKKC-NH2; disulfide 3-18; N-terminus assumed) | 3 (≈ 6.33 µg/mL) | >12 | >12 | >12 | >12 | 6 | 3 | –
6 | CC[C@H](C)[C@@H]1NC(=O)[C@H](CCCNC(=N)N)NC(=O)[C@@H](NC(=O)[C@H](CCCNC(=N)N)NC(=O)CNC(=O)[C@@H](N)CO)CSSC[C@@H](C(N)=O)NC(=O)[C@H](CC(N)=O)NC(=O)[C@H](CCCCN)NC(=O)[C@H]([C@@H](C)O)NC(=O)[C@H](Cc2ccccc2)NC(=O)[C@H](Cc2ccc(O)cc2)NC(=O)[C@H](Cc2c[nH]c3ccccc23)NC(=O)[C@H](CCCNC(=N)N)NC(=O)[C@H](Cc2ccccc2)NC(=O)[C@H](CC(C)C)NC1=O [GMA1C_V3] (H-SGRCRILFRWYFTKNC-NH2; disulfide 4-16; N-terminus assumed) | 1.5 (≈ 3.07 µg/mL) | 6 | >12 | 3 | – | – | – | –
7 | GRCRGFRRRCFCTTHC-NH2 (cysteine pairing not given here) [GMA4AC_WT, reference compound] | – | – | – | – | >12 | >12 | >12 | –
8 | CC[C@H](C)[C@H](NC(=O)[C@H](CCCNC(=N)N)NC(=O)[C@@H](NC(=O)[C@H](Cc1c[nH]c2ccccc12)NC(=O)[C@H](Cc1ccccc1)NC(=O)[C@H](Cc1c[nH]c2ccccc12)NC(=O)[C@H](CCCNC(=N)N)NC(=O)[C@H](CCCNC(=N)N)NC(=O)[C@H](CCCNC(=N)N)NC(=O)[C@H](Cc1ccccc1)NC(=O)CNC(=O)[C@H](CCCCN)NC(=O)[C@H](CS)NC(=O)[C@H](CCCNC(=N)N)NC(=O)CNC(=O)CN)[C@@H](C)O)C(=O)N[C@@H](CS)C(N)=O [GMA4C_V6A] (H-GGRCKGFRRRWFWTRIC-NH2; N-terminus assumed) | – | – | – | – | – | – | – | antifungal activity relative to the wild-type GMA4C_AC control, B. cinerea (B. cinerea [1]; in vitro, low cationic conditions): four-fold increase
9 | CC(C)C[C@@H]1NC(=O)[C@@H](NC(=O)[C@H](C)NC(=O)CN)CSSC[C@@H](C(=O)N[C@@H](Cc2ccc(O)cc2)C(N)=O)NC(=O)[C@H](Cc2c[nH]cn2)NC(=O)[C@H](CCCNC(=N)N)NC(=O)[C@H](Cc2ccc(O)cc2)NC(=O)[C@H](Cc2ccc(O)cc2)NC(=O)[C@H](Cc2c[nH]c3ccccc23)NC(=O)[C@H](Cc2ccccc2)NC(=O)[C@H](Cc2c[nH]c3ccccc23)NC(=O)CNC(=O)[C@H](Cc2ccc(O)cc2)NC(=O)[C@H](Cc2c[nH]cn2)NC(=O)[C@H](CCCCN)NC(=O)[C@H](CO)NC(=O)[C@H](Cc2c[nH]cn2)NC(=O)[C@H](CCCNC(=N)N)NC(=O)[C@H](CC(N)=O)NC(=O)[C@H](CCCCN)NC1=O [GMAOe1C_V3] (H-GACLKNRHSKHYGWFWYYRHCY-NH2; disulfide 3-21; N-terminus assumed) | 1.5 (≈ 4.31 µg/mL) | 3 to 6 | – | 2 to 3 | – | – | – | gray mold symptoms, drop inoculation assay, comparison within the peptide family (B. cinerea [2]; 1.5 μM): more effective
10 | C[C@H](NC(=O)CN)C(=O)N[C@@H](CS)C(=O)N[C@@H](Cc1c[nH]cn1)C(=O)N[C@@H](CCCNC(=N)N)C(=O)N[C@@H](CCC(N)=O)C(=O)NCC(=O)N[C@@H](Cc1ccccc1)C(=O)NCC(=O)N[C@@H](Cc1ccccc1)C(=O)N[C@@H](C)C(=O)N[C@@H](CS)C(=O)N[C@@H](Cc1ccccc1)C(=O)N[C@@H](CS)C(=O)N[C@@H](Cc1ccc(O)cc1)C(=O)N[C@@H](CCCCN)C(=O)N[C@@H](CCCCN)C(=O)N[C@@H](CS)C(N)=O [GMA5CA_WT, reference compound] (H-GACHRQGFGFACFCYKKC-NH2; N-terminus assumed) | – | – | – | – | >12 | 12 | 6 | –
11 | C[C@H](NC(=O)CN)C(=O)N[C@H]1CSSC[C@@H](C(N)=O)NC(=O)[C@H](CCCCN)NC(=O)[C@H](CCCCN)NC(=O)[C@H](Cc2ccc(O)cc2)NC(=O)[C@H](Cc2c[nH]c3ccccc23)NC(=O)[C@H](Cc2ccccc2)NC(=O)[C@H](Cc2c[nH]c3ccccc23)NC(=O)[C@H](C)NC(=O)[C@H](Cc2ccccc2)NC(=O)CNC(=O)[C@H](Cc2ccccc2)NC(=O)CNC(=O)[C@H](CCC(N)=O)NC(=O)[C@H](CCCNC(=N)N)NC(=O)[C@H](Cc2c[nH]cn2)NC1=O [GMA5CA_V3] (H-GACHRQGFGFAWFWYKKC-NH2; disulfide 3-18; N-terminus assumed) | 3 (≈ 6.57 µg/mL) | >12 | >12 | >12 | >12 | 6 | 3 | –
12 | NCC[C@H](NC(=O)CNC(=O)[C@@H](N)Cc1ccccc1)C(=O)N[C@@H](CS)C(=O)N[C@@H](CCN)C(=O)NCC(=O)N[C@@H](Cc1ccccc1)C(=O)N[C@@H](CCN)C(=O)N[C@@H](CCN)C(=O)N[C@@H](CCN)C(=O)N[C@@H](CS)C(=O)N[C@@H](Cc1ccccc1)C(=O)N[C@@H](CS)C(=O)N[C@@H](Cc1c[nH]c2ccccc12)C(=O)N[C@@H](CCN)C(=O)N[C@@H](Cc1c[nH]c2ccccc12)C(=O)N[C@@H](CS)C(=O)O [GMA4C_V5, FG(Dab)C(Dab)GF(Dab)(Dab)(Dab)CFCW(Dab)WC] (H-FG[Dab]C[Dab]GF[Dab][Dab][Dab]CFCW[Dab]WC-OH; N-terminus assumed) | – | – | – | – | – | – | – | SFM + 2 mM CaCl2 MIC (μM) (B. cinerea [1]; B. cinerea, Table 4): >6 (very μM; SFM + 2 mM CaCl2 MIC (μM) (B. cinerea [1]; Table 10): >6 (very μM
13 | CC[C@H](C)[C@@H]1NC(=O)[C@H](CCCNC(=N)N)NC(=O)[C@@H](NC(=O)[C@H](CCCNC(=N)N)NC(=O)CNC(=O)[C@@H](N)CO)CSSC[C@@H](C(N)=O)NC(=O)[C@H](CC(N)=O)NC(=O)[C@H](CCCCN)NC(=O)[C@H]([C@@H](C)O)NC(=O)[C@H](Cc2c[nH]c3ccccc23)NC(=O)[C@H](Cc2ccccc2)NC(=O)[C@H](Cc2c[nH]c3ccccc23)NC(=O)[C@H](CCCNC(=N)N)NC(=O)[C@H](Cc2ccccc2)NC(=O)[C@H](CC(C)C)NC1=O [GMA1C_V2] (H-SGRCRILFRWFWTKNC-NH2; disulfide 4-16; N-terminus assumed) | – | 3 | >12 | 3 | – | – | – | gray mold symptoms, drop inoculation assay, comparison within the peptide family (B. cinerea [2]; 1.5 μM): more effective; gray mold symptoms, drop inoculation assay (B. cinerea [2]): completely abrogated gray mold symptoms
